From US20260294922A1, “Inhibitors of JUN N-Terminal Kinases (JNK1, JNK2, and/or JNK3) and Mitogen-Activated Protein Kinases (MAPK8, MAPK9, and/or MAPK10) and Methods of Using Same” (Baylor College of Medicine, priority 2023, published 2026)

How the values were obtained:
CSNK1E = molecular target: T1, CSNK1E (Homo sapiens, UniProt P49674); assay: ThermoFisher SelectScreen, CSNK1E; assay type: binding
T1 construct: purchased ThermoFisher (SelectScreen)

JNK1 = JNK1 (Homo sapiens, UniProt P45983); assay: JNK1 kinase (intrinsic ATPase, Kinase-Glo) assay; assay type: biochemical
Method in brief: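 Full-length construct not stated; kinases hydrolyse ATP without peptide substrate, reaction run 30 or 60 min at 30° C, remaining ATP read by Kinase-Glo luminescence with no-kinase controls. Apparent Ki from normalized fractional activities fitted to modified Morrison tight-binding equation; orthogonal LanthaScreen binding assay gave IC50.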

CSNK1G1 = molecular target: T2, CSNK1G1 (Homo sapiens, UniProt Q9HCP0); assay: ThermoFisher SelectScreen, CSNK1G1; assay type: binding
T2 construct: purchased ThermoFisher (SelectScreen)
Description: (§1) To mitigate violation of the linear initial velocity principle, which is a problem in end-point assays when doing dose-responses, the enzyme concentration was carefully optimized, in a total assay volume of 25 μL. The assay was performed using 10 μM ATP, 0.02% Tween-20, kinase buffer from Cell Signaling (#9802) in white 384-well plates. The kinase reaction was done for 30 or 60 min at 30° C., and detection of leftover ATP was measured according to Promega's protocol. […] Fractional activities were obtained from normalized data. Non-linear regression (GraphPad Prism7) and a modified Morrison equation for tight binding was used to determine apparent Ki values for inhibitors, assuming no particular mode of inhibition. An orthogonal binding assay (LanthaScreen) was outsourced to ThermoFisher Scientific's SelectScreen Services to determine IC50 values.
(§2) One of the earliest compounds to be synthesized with favorable enzymatic activity towards JNK1 and JNK3 was CDD-2346. A KINOMEscan was performed for CDD-2346 to establish whether the selectivity of this chemical scaffold was suitable or required optimization. […] To confirm that the activity against each kinase was a true result and not a false positive, CDD-2346 was evaluated in kinase assays using ThermoFisher SelectScreen platform. The results from these assays are provided herein (Table 4). The important innovative steps described are the optimization of selectivity a) for JNK isoforms; b) for kinases considered “in-pathway”; and c) to avoid kinases considered “out-of-pathway”.
No activity of CDD-2728 was detected for Atypical, Mutant, or Lipid kinases. To confirm CDD-2728 inhibition results in the KINOMEscan analysis, individual binding assays were performed on the kinases to which CDD-2728 bound using ThermoFisher SelectScreen.

MYLK = molecular target: T3, MYLK (Homo sapiens, UniProt Q15746); assay: ThermoFisher SelectScreen, MYLK; assay type: binding; conditions: Table 4
T3 construct: purchased ThermoFisher (SelectScreen, outsourced service)
Description: as §1, §2

JNK3 [1] = molecular target: T4, JNK3 (Homo sapiens, UniProt P53779); assay: JNK3 kinase (intrinsic ATPase, Kinase-Glo) assay; assay type: biochemical; conditions: Table 3a; read-out: Kd JNK3
PHKG2 = molecular target: T5, PHKG2 (Homo sapiens, UniProt P15735); assay: ThermoFisher SelectScreen, PHKG2; assay type: binding; conditions: Table 4
T5 construct: purchased ThermoFisher (SelectScreen, outsourced service)
T5 sequence (P15735 1-406): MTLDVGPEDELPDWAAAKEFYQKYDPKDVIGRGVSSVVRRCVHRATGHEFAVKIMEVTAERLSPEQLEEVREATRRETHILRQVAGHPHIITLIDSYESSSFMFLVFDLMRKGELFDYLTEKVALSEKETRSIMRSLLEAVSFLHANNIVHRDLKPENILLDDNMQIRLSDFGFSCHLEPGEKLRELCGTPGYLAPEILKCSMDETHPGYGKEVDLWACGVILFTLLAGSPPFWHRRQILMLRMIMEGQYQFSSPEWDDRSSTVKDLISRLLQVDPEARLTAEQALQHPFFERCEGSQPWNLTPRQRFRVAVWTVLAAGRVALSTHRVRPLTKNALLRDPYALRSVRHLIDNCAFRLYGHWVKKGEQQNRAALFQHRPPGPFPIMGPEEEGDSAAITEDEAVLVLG
Description: as §1, §2

PIP5K1C = molecular target: T6, PIP5K1C (Homo sapiens, UniProt O60331); assay: ThermoFisher SelectScreen, PIP5K1C; assay type: binding; conditions: Table 4
T6 construct: purchased ThermoFisher (SelectScreen, outsourced service)
Description: as §1, §2

JNK2 = JNK2 (Homo sapiens, UniProt P45984); assay: JNK2 kinase (intrinsic ATPase, Kinase-Glo) assay; assay type: biochemical; conditions: Table 3a; read-out: Kd JNK2
[2] = In vitro metabolism in human liver microsomes; conditions: human, microsomes
Description: The target product profile seeks to deliver JNK inhibitor as a once daily oral administration. To prioritize compounds for further development, in vitro metabolism of several CDD JNK inhibitors were determined to approximate the plasma half-life and the rate of metabolism of the compounds in vivo.

CLK2 = molecular target: T7, CLK2 (Homo sapiens, UniProt P49760); assay: ThermoFisher SelectScreen, CLK2; assay type: binding
T7 construct: purchased ThermoFisher (SelectScreen)

JNK3 [3] = molecular target: T4, JNK3; assay: Promega NanoBRET intracellular target engagement (tracer K10 displacement), JNK3; assay type: cell-based

T7 sequence (P49760 whole entry): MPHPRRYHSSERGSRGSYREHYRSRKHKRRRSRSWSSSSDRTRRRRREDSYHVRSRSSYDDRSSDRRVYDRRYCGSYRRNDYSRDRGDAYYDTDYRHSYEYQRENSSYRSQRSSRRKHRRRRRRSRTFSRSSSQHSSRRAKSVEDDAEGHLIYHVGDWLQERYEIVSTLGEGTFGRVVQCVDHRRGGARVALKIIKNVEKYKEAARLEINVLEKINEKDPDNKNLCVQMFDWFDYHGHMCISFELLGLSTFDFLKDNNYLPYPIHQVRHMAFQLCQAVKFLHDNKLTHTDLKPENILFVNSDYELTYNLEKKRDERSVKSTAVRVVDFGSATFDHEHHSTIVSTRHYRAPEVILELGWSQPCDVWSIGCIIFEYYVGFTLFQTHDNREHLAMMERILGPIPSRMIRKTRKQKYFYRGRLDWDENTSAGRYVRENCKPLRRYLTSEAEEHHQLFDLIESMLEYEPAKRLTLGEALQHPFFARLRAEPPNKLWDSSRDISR
T1 sequence (P49674 whole entry): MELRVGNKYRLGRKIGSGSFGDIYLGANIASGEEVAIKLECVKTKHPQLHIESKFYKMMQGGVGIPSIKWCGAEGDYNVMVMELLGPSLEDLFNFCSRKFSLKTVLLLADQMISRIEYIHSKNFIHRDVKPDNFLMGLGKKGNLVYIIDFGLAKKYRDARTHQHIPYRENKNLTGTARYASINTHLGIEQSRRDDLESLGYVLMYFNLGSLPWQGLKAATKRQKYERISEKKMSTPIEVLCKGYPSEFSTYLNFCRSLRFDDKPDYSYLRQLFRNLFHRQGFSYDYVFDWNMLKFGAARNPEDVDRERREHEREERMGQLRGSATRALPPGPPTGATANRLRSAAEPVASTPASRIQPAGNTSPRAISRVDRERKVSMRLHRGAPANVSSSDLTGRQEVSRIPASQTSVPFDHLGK
T2 sequence (Q9HCP0 whole entry): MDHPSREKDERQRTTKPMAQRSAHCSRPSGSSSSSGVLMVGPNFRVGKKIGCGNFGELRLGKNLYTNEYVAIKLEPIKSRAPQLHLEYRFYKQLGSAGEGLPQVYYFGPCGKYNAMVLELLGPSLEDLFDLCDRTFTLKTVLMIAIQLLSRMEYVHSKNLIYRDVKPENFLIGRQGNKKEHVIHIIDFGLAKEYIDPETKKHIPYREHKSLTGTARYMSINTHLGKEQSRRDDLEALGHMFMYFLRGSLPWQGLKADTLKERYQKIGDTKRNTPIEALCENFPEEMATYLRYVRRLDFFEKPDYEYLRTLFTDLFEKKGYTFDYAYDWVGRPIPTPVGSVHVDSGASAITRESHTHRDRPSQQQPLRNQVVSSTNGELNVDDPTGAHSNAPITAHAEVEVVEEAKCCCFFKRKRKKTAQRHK
Chain of JNK1 (P45983 whole entry): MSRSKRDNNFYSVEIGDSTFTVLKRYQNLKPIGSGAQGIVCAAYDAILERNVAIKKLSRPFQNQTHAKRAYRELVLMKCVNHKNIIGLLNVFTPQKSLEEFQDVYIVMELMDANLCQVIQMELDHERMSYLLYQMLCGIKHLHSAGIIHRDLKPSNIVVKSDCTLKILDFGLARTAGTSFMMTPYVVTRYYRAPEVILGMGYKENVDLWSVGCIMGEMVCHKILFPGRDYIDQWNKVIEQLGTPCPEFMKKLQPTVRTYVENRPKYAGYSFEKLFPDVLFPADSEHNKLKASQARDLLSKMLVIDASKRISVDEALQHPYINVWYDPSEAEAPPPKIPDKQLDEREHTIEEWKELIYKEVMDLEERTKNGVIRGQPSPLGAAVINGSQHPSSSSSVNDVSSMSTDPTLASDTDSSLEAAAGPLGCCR
T3 sequence (Q15746 whole entry): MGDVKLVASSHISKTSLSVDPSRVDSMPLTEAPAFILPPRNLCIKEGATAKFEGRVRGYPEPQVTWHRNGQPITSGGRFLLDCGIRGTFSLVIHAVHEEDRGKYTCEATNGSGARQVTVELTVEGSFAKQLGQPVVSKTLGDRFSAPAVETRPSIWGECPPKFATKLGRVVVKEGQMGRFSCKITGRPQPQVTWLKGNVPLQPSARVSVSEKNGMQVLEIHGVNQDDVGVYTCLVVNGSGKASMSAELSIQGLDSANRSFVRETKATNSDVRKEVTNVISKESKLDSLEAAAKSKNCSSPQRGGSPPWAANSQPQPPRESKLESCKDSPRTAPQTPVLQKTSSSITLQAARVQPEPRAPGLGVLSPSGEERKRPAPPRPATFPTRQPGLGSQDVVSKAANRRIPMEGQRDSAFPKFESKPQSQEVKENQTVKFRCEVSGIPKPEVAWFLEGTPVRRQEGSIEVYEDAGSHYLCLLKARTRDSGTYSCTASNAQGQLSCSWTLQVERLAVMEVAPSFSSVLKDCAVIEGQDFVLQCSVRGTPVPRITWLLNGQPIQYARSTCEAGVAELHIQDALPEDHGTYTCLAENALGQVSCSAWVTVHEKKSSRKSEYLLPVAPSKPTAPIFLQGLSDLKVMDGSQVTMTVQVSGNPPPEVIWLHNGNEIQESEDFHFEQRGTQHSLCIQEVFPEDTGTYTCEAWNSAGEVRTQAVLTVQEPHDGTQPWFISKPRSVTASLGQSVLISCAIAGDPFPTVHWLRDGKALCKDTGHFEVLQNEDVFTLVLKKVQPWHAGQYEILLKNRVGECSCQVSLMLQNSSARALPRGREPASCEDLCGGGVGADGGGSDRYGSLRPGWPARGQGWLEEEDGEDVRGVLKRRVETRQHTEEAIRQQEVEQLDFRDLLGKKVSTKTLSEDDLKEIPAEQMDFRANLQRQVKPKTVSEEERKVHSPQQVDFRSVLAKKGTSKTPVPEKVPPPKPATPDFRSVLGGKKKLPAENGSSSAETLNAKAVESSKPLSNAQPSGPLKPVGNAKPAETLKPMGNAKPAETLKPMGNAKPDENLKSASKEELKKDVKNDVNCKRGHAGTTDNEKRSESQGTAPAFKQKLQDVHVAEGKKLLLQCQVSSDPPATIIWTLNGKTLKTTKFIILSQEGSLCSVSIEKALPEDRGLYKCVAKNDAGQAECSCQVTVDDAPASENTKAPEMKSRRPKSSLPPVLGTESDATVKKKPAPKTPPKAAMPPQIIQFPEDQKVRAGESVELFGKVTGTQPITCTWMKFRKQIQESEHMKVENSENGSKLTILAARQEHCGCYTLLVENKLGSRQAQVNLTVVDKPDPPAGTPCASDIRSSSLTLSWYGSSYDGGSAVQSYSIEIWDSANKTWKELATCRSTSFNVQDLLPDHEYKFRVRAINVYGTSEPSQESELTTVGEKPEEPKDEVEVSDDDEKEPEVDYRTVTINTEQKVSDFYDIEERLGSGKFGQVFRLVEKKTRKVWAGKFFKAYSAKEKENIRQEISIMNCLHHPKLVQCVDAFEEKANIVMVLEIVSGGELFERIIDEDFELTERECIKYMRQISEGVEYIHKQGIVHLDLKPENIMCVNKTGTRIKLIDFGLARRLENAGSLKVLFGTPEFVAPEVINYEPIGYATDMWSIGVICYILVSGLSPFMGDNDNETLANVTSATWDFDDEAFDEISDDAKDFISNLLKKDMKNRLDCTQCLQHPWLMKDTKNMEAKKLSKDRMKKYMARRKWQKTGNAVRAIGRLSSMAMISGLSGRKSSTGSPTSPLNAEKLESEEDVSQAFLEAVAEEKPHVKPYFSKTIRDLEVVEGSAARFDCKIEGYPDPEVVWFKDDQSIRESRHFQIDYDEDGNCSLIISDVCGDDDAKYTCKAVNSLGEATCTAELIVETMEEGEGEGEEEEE
T4 sequence (P53779 whole entry): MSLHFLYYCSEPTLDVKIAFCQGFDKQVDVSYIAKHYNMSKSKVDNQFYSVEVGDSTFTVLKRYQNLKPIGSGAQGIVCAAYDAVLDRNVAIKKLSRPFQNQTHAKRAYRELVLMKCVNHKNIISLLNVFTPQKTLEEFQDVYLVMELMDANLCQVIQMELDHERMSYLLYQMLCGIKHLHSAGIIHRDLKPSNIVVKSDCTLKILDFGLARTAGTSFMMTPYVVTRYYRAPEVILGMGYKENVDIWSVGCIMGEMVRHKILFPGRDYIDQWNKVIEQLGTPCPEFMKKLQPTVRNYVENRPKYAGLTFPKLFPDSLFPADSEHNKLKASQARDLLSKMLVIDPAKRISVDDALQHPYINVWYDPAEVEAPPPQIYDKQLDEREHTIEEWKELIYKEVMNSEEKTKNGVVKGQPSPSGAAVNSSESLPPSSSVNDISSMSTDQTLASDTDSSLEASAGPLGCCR
Chain of JNK2 (P45984 whole entry): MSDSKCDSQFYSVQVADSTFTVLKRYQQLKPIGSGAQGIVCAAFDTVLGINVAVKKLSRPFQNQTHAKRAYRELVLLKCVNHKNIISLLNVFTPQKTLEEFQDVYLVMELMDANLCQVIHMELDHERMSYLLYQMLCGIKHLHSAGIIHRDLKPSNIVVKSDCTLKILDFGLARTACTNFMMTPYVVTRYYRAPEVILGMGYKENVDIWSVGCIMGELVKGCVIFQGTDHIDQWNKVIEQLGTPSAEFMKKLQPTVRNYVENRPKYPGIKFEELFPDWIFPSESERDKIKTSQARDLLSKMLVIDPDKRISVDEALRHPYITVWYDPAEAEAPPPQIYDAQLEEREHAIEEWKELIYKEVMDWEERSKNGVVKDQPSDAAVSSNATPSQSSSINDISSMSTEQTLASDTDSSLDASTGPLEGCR

Kd (CSNK1E)	Kd (JNK1)	Kd (CSNK1G1; Table 4)	Kd (MYLK)	Kd (JNK3 [1])	Kd (PHKG2)	Kd (PIP5K1C)	Kd (JNK2)	half-life [2]	Kd (CLK2)	Kd (CSNK1G1; Table 5)	IC50 (JNK3 [3])	Compound
29 nM	0.25 ± 0.04 nM	52 nM	501 nM	0.45 ± 0.04 nM	110 nM	13200 nM	0.74 ± 0.09 nM	56.7 min	17 nM	–	–	CN(C)Cc1ccc(NC(=O)c2ccn3ncc(-c4cnc5[nH]ccc5c4)c3c2)cc1 [CDD-2482, N-(4-((dimethylamino)methyl)phenyl)-3-(1H-pyrrolo[2,3-b]pyridin-5-yl)pyrazolo[1,5-a]pyridine-5-carboxamide]
1070 nM	0.24 ± 0.05 nM	–	–	–	–	–	–	173 min	240 nM	4400 nM	534 nM	CN(C)C(=O)c1cc(NC(=O)c2cc3c(-c4cnc5[nH]ccc5c4)cccc3s2)ccc1O [CDD-2728, N-(3-(dimethylcarbamoyl)-4-hydroxyphenyl)-4-(1H-pyrrolo[2,3-b]pyridin-5-yl)benzo[b]thiophene-2-carboxamide]
235 nM	1.7 ± 0.2 nM	14400 nM	942 nM	0.86 ± 0.05 nM	1950 nM	1150 nM	0.67 ± 0.09 nM	33.9 min	130 nM	–	468 nM	O=C(Nc1ccc(F)cc1)c1ccn2ncc(-c3cnc4[nH]ccc4c3)c2c1 [CDD-2486, N-(4-fluorophenyl)-3-(1H-pyrrolo[2,3-b]pyridin-5-yl)pyrazolo[1,5-a]pyridine-5-carboxamide]
48 nM	0.23 ± 0.08 nM	133 nM	442 nM	0.65 ± 0.16 nM	188 nM	811 nM	0.94 ± 0.22 nM	189 min	34 nM	–	3000 nM	CNCc1ccc(NC(=O)c2ccn3ncc(-c4cnc5[nH]ccc5c4)c3c2)cc1 [CDD-2346, N-(4-((methylamino)methyl)phenyl)-3-(1H-pyrrolo[2,3-b]pyridin-5-yl)pyrazolo[1,5-a]pyridine-5-carboxamide]
